Tests used:
Format in all cases: cell-based, human
HRH2/cAMP/PKA axis = assay: PLS assessment upon perturbation of the HRH2/cAMP/PKA axis in Huh7.5.1dif cells; settings: histamine 10 μM + nizatidine 10 μM, 48 hours
Protocol: Histamine, 8-CPT, cAMP and H89 Treatment. Huh7.5.1^dif cells were cultured in DMEM containing 1% FBS and 1% DMSO and incubated with histamine (10 μM) or histamine+nizatidine (10 μM) for 48 hours. Fresh medium containing histamine was replenished every 12 hours. For 8-CPT cAMP and H89, Huh7.5.1^dif cells cultured in DMEM 1% DMSO and 1% FBS were incubated with 8-CPT cAMP (100 μM), H89 (1 μM) or DMSO as a control for 48 hours. Fresh medium containing 8-CPT cAMP was replenished every 12 hours.
Transcriptomic Analysis and PLS Calculation. Gene expression profiling and the 32 gene PLS 32 profiling were performed using 250-500 ng total RNA by using either nCounter Digital Analyzer system (NanoString) or the HumanHT-12 beadarray (Illumina) for the time-course experiments. PLS gene expression was normalized according to 6 housekeeping gene expression using GenePattern genomic analysis toolkits (Hoshida, PLOS ONE, 2010, 5: e15543; Peck et al., Genome Biol., 2006, 7: R61; Reich et al., Nature Genet., 2006, 38: 500-501). Induction or suppression of PLS risk signature was determined as previously reported by using Gene Set Enrichment Analysis (GSEA), implemented in GenePattern genomic analysis toolkits (Hoshida, PLOS ONE, 2010, 5: e15543; Peck et al., Genome Biol., 2006, 7: R61; Reich et al., Nature Genet., 2006, 38: 500-501). PLS was always determined by using CTRL cells as references. Results are presented as simplified heatmaps showing the classification of PLS global status as poor or good prognosis and the significance of induction/suppression of PLS genes (log 10 of false discovery rate (FDR) values). For each experiment, heatmaps show: in the upper part: the classification of PLS global status as poor (orange) or good (green) prognosis, and in the bottom part: the significance of induction (red) or suppression (blue) of PLS poor- or good-prognosis genes. Global status corresponds to the difference between low risk- and high risk-gene expression. The statistic tests, normalized enrichment score (NES) and FDR values are provided for each PLS experiment (poor- and good-prognosis genes variation and global status) in the Source Data file.

intracellular cAMP = assay: Intracellular cAMP level by ELISA in HCV-infected Huh7.5.1dif cells; settings: increase following induction of the poor-prognosis PLS (HCV Jc1 5 days), nizatidine 3 more days
Protocol: ELISA Assay. To assess the HCV infection and nizatidine treatment on intracellular cAMP level, Huh7.5.1^dif cells were infected with HCV Jc1 for 5 days and were incubated for 3 more days with nizatidine or DMSO as a control. The cAMP level was measured by ELISA assay using the cAMP Parameter Assay Kit (R&D System) according to manufacturer's instructions.

liver macrophages = assay: scRNA-Seq of CD45+ leucocytes from patient liver tissue treated with nizatidine
Protocol: Single-Cell RNA-Seq Analyses of Patient Liver Tissues. Human cells were dissociated from HCC patient liver tissues. Fresh or cryopreserved tissues were minced into 2 to 3 mm pieces and incubated with collagenase (0.5 mg/mL) for 30 minutes at 37° C. Digested tissues were filtered through a sterile nylon mesh to separate the dispersed cells from tissue fragments and washed with Hanks' Balanced Salt Solution (HBSS). Cells were then centrifuged at 600×g for 5 minutes at 4° C. Leucocytes CD45^+ cells were separated from other cell types by flow cytometry using SH800 cell sorter (Sony). Briefly, 500,000 cells per condition were stained with human CD45 specific antibody. Living cells were selected using Zombie green staining according to manufacturer's instructions. Data were acquired using the Sony Cell Sorter Software. Cells were then cultured in MammoCultTM medium and treated with nizatidine 50 μM or DMSO vehicle control. Two days after treatment, single cells were sorted into 384 well cell capture plates (Single Cell Discovery, website: www.scdiscoveries.com) using SH800 cell sorter (Sony). The plates contain mineral oil and droplets of poly-A primers, containing a cell-specific barcode and a unique molecular identifier (UMI), enabling to distinguish the well-specific (and cell-specific) mRNA molecules. scRNA-Seq was performed by Single-Cell Discoveries B.V. using SORT-seq protocol (Muraro et al., Pancreas Cell Syst., 2016, 3: 385-394, e3). Single Cell RNA-Seq Profiling of Human Cells. scRNA-Seq analysis of patient-derived liver tissue was assessed using R version 3.5.3 with package “[…]” for clusterization, cluster analysis and DEG calculation, as previously described (Aizarani et al., Nature; 2019, 572: 199-204).

Huh7.5.1dif cells = assay: IL6 and TNFα expression by qRT-PCR in HCV-infected Huh7.5.1dif cells
Protocol: FIG. 8. The Huh7.5.1^dif Cell-Based System Recapitulates Transcriptional Dysregulations in Human Macrophages. (A-B) HRH2 knockdown leads to CREB5 downregulation in Huh7.5.1^dif cells similar to macrophages. Macrophages (A) and Huh7.5.1^dif cells (B) were transfected with siRNA CTRL or targeting HRH2 expression and activated using LPS+IFNγ or HCV-infection respectively. HRH2, CREB5 expression and the HCV viral load were analyzed by qRT-PCR. (Macrophage=three independent experiments n=8; Huh7.5.1^dif cells=two independent experiments n=6). (C) Nizatidine treatment decreases IL6 and TNF expression in Huh7.5.1^dif cells similar to macrophage. Huh7.5.1^dif cells were HCV infected and treated with nizatidine. IL6 and TNFα expression were analyzed by qRT-PCR. […]
Real-Time qRT-PCR. cDNAs were synthetized by reverse transcription using SuperScript III First-Strand Synthesis SuperMix (Life Technologies). Expression of […] IL6, TNFα and IL1β was analyzed by quantitative real-time PCR using TaqMan Gene Expression Assays (Thermo Fisher Scientific) on the CFX96 Touch Real-Time PCR Detection System PCR system (Bio-Rad). Expression of human CCL2 and TGF was analyzed using iTaq™ Universal SYBR® Green Supermix (Bio-Rad). The 2^−ΔCT method was used for relative quantification (Schmittgen and Livak, Nature Protoc., 2008, 3: 1101-1108) of mRNA with normalization to 18S. […]

[1] = GSEA, nizatidine-treated vs CTRL macrophages
[2] = gene-level analysis in macrophages
[3] = nizatidine 50 μM, two days, scRNA-Seq

CNC(=C[N+](=O)[O-])NCCSCc1csc(CN(C)C)n1 [Nizatidine, N-[2-[[[2-[(dimethylamino)methyl]-4-thizaolyl]methyl]thio]ethyl]-N′-methyl-2-nitro-1,1-ethene-diamine]
histamine-induced PLS poor-prognosis status (HRH2/cAMP/PKA axis): reversal | intracellular cAMP level (intracellular cAMP): reverted | IFNγ response and antigen processing and presentation (liver macrophages; [1]): augmenting IFNγ response and antigen processing and presentation | c-Myc pathway expression (liver macrophages; [1]): strong suppression of the c-Myc pathway expression | immunoregulatory macrophage (M2) signature (liver macrophages; [1]): only partially induces the immunoregulatory macrophage (M2) signature | pro-inflammatory and pro-fibrogenic responses (TNFα, IL2 and IL6 signaling pathways) (liver macrophages; [1]): suppresses pro-inflammatory and pro-fibrogenic responses | pro-inflammatory macrophage (M1) signature (liver macrophages; [1]): suppresses the pro-inflammatory macrophage (M1) signature | major histocompatibility complex (MHC) molecules expression (liver macrophages; [2]): increase in major histocompatibility complex (MHC) molecules expression | neutrophil/monocyte chemoattractant and pro-inflammatory cytokine expression (CXCL5, CCL2, CCL5) (liver macrophages; [2]): decrease in neutrophil/monocyte chemoattractant and pro-inflammatory cytokine expression | pro-fibrotic/tumorigenic soluble factor expression (IL6, IL1b, PDGF, MMP9, TNFα) (liver macrophages; [2]): suppression of pro-fibrotic/tumorigenic soluble factor expression | Siglec-10 expression in macrophages (liver macrophages; [3]): decreases expression | macrophage CLEC5A expression (liver macrophages; [3]): decreased macrophage CLEC5A expression | IL6 expression (Huh7.5.1dif cells): decreased | TNFα expression (Huh7.5.1dif cells): decreased

From patent publication US20230349922A1, “H2 Blockers Targeting Liver Macrophages for the Prevention and Treatment of Liver Disease and Cancer” (Université de Strasbourg, priority 2020, published 2023)
